Measurements as given in PubChem BioAssay (NCI).
Values joined by “and” are separate entries in the source; they are usually repeats but may differ in a detail not shown here. Equal entries are not always repeated.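 Interpolation was linear, between the two tested concentrations surrounding the appropriate level; five concentrations were tested over 48 hours in 96-well plates. At the GI50, growth is halved. The concentration for full growth arrest is given as TGI.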 Where a SMILES comes first, the peptide text is derived from it. [ ]: non-standard residue; d: D form. The star is where a group is joined. Phe(4-NO2) = N[CH](Cc1ccc([N+](=O)[O-])cc1)C(=O)O; Boc = CC(C)(C)OC(=O)*; OBn = c1ccc(CO*)cc1

Legend:
Assay in all cases: growth of human tumour cells (NCI), 48 h
HCT-116 colon = tested on: HCT-116 colon
HL-60(TB) leukemia = tested on: HL-60(TB) leukemia
HOP-62 NSCLC = tested on: HOP-62 NSCLC
HT29 colon = tested on: HT29 colon
PC-3 prostate = tested on: PC-3 prostate
SK-MEL-5 melanoma = tested on: SK-MEL-5 melanoma
SNB-75 CNS = tested on: SNB-75 CNS
MALME-3M melanoma = tested on: MALME-3M melanoma
T-47D breast = tested on: T-47D breast

| Structure (SMILES) | TGI (HCT-116 colon) | TGI (HL-60(TB) leukemia) | TGI (HOP-62 NSCLC) | TGI (HT29 colon) | TGI (PC-3 prostate) | TGI (SK-MEL-5 melanoma) | TGI (SNB-75 CNS) | TGI (MALME-3M melanoma) | TGI (T-47D breast) | GI50 (HCT-116 colon) | GI50 (HOP-62 NSCLC) | GI50 (HT29 colon) | GI50 (MALME-3M melanoma) | GI50 (PC-3 prostate) | GI50 (SNB-75 CNS) | GI50 (T-47D breast) | GI50 (HL-60(TB) leukemia) | GI50 (SK-MEL-5 melanoma) |
| --- | --- | --- | --- | --- | --- | --- | --- | --- | --- | --- | --- | --- | --- | --- | --- | --- | --- | --- |
| CCC(C)[C@H](NC(=O)N[C@H](C)c1ccccc1)C(=O)OC (stereo not given in full) | > 100 µM | > 100 µM | > 100 µM | > 100 µM | > 100 µM | > 100 µM | > 100 µM |  |  |  |  |  |  |  |  |  |  |  |
| COc1cc(-c2nc3cc(F)ccc3s2)ccc1O | > 100 µM | > 100 µM |  | > 100 µM | > 100 µM | > 100 µM |  | > 100 µM | 15.3 µM |  |  |  |  |  |  |  |  |  |
| CC(C)(C)OC(=O)n1cc(C2CNC(=O)C23CCC(=O)N3Cc2ccccc2)c2ccccc21 (stereo not given) | > 100 µM | 82.5 µM | 57.2 µM | 37.3 µM | 79.3 µM | 31.9 µM | 38.2 µM | 42.8 µM | > 100 µM |  |  |  |  |  |  |  |  |  |
| CC(C)C[C@H](NC(=O)[C@H](Cc1cccc2ccccc12)NC(=O)N1CCOCC1)B(O)O | 0.00182 µM |  | 0.0137 µM and < 0.018 µM | 0.00448 µM | 0.0191 µM and < 0.0235 µM | 0.00237 µM | 0.00348 µM | 0.00306 µM and < 0.0169 µM | 0.00275 µM | 0.000452 µM | 0.00383 µM | 0.00131 µM | 0.000373 µM | 0.00473 µM | 0.000622 µM | 0.000817 µM |  |  |
| COC(=O)CCC(NC(=O)OC(C)(C)C)C(=O)NC(Cc1ccc([N+](=O)[O-])cc1)C(=O)NCC(=O)OCc1ccccc1 (stereo not given) (Boc-Glu(OMe)-[Phe(4-NO2)]-Gly-OBn; configuration not given here) | > 100 µM | > 100 µM | > 77.6 µM | > 100 µM | > 100 µM | > 100 µM | 48.4 µM | > 100 µM | > 100 µM |  |  |  |  |  |  |  |  |  |
| O=C(CSc1nc2ccccc2[nH]1)Nc1ccc(-c2nc3ccccc3s2)c(Cl)c1 |  | > 100 µM |  | > 100 µM | > 100 µM | > 100 µM | > 100 µM | 8.92 µM | 6.05 µM |  |  | 4.79 µM | 2.59 µM | 2.83 µM | 6.58 µM | 1.71 µM | > 100 µM | 3.12 µM |
| Cc1cc2c(cc1Cl)Sc1nnc(Nc3ccccc3)n1S2(=O)=O | 37.1 µM | 16.4 µM | 15 µM | > 100 µM | 22.1 µM | 53.8 µM | 23.7 µM |  | 57.3 µM |  |  |  |  |  |  |  |  |  |
| CC(=O)c1ccc(N=Nc2ccc3nonc3c2N)cc1 | > 100 µM | > 100 µM | > 100 µM | > 100 µM | > 100 µM | > 100 µM | > 100 µM | > 100 µM | > 100 µM |  |  |  |  |  |  |  |  |  |
| Cc1ccc(S(=O)(=O)N/C(=C\C=C\c2ccccc2)C(=O)C(C)(C)C)cc1 | > 100 µM | > 100 µM | 44 µM | > 100 µM | > 100 µM | > 100 µM | > 100 µM | > 100 µM | > 100 µM |  |  |  |  |  |  |  |  |  |
| CC(=O)OC[C@H]1O[C@@H](O[C@H]2[C@H](OC(C)=O)C=CO[C@@H]2COC(C)=O)C(OC(C)=O)[C@H]2OC(C)(C)O[C@H]21 (stereo not given in full) | > 100 µM |  | > 100 µM | > 100 µM | > 100 µM | > 100 µM | 87.3 µM | > 100 µM | > 100 µM |  |  |  |  |  |  |  |  |  |
| Cn1ccnc1Sc1ccc(/C=N/NC(=O)c2ccccc2O)cc1[N+](=O)[O-] | > 100 µM | > 100 µM | > 100 µM | > 100 µM | > 100 µM | > 100 µM | > 100 µM | > 100 µM | > 100 µM |  |  |  |  |  |  |  |  |  |
| COc1cccc(N2C(=O)C3c4[nH]c5ccccc5c4C4c5ccccc5CCC4C3C2=O)c1 (stereo not given) | > 10 µM | > 10 µM | 6.81 µM | > 10 µM | > 10 µM | > 10 µM | 6.3 µM | > 9.13 µM | > 10 µM |  |  |  |  |  |  |  |  |  |
| OC(C1CCC=NN1C(O)(C(F)(F)F)C(F)(F)F)(C(F)(F)F)C(F)(F)F (stereo not given) | > 10 µM |  | > 10 µM | > 10 µM | > 10 µM | > 10 µM | > 10 µM | > 10 µM | > 10 µM |  |  |  |  |  |  |  |  |  |
| CC(=O)O/C=C\OC1CCCC1(c1ccccc1)c1ccccc1 (stereo not given) | 4.19 µM | 2.89 µM | 25.4 µM | 8.71 µM | 9.15 µM | 7.19 µM | 11.5 µM | 4.61 µM | 6.19 µM |  |  |  |  |  |  |  |  |  |
| COc1cc2c3cc1Oc1c(O)c(OC)cc4c1[C@H](Cc1ccc(cc1)Oc1cc(ccc1O)C[C@H]3N(C)CC2)N(C)CC4 | 22.4 µM | 33.9 µM | 43.8 µM | 18.5 µM | 27.1 µM | 16.6 µM | 43 µM | 36.8 µM | 46.1 µM |  |  |  |  |  |  |  |  |  |
| CC(=O)O[C@H]1CC[C@@]2(C)C(=CC[C@@H]3[C@@H]2CC[C@]2(C)C(c4cccnc4)=CC[C@@H]32)C1 | > 100 µM | > 100 µM | > 100 µM | 12.7 µM | > 100 µM | 10.1 µM | 15.6 µM | 33.9 µM | 55.7 µM | 4.49 µM | 6.24 µM | 3.07 µM | 3.24 µM | 3.98 µM | 2.6 µM | 2.81 µM | 7.36 µM | 2.89 µM |
| O=c1[nH]nc(Cc2ccccc2)n1/N=C/c1c[nH]c2ccccc12 | > 100 µM | > 100 µM | > 100 µM | > 100 µM | > 100 µM | > 100 µM | 51.3 µM | > 100 µM | > 100 µM |  |  |  |  |  |  |  |  |  |
| COc1ccc2c(c1)O[C@@H]1C(O)Oc3cc(OC)c(OC)cc3[C@]1(O)C2=O (stereo not given in full) | > 100 µM | > 100 µM | > 100 µM | > 100 µM | > 100 µM | 72.4 µM | > 100 µM |  | > 100 µM |  |  |  |  |  |  |  |  |  |
| C=CC(=O)N1C/C(=C\c2ccc(N(C)C)cc2)C(=O)/C(=C/c2ccc(N(C)C)cc2)C1 | > 100 µM |  | > 100 µM | > 100 µM | > 100 µM | > 100 µM | > 100 µM | > 100 µM | > 100 µM |  |  |  |  |  |  |  |  |  |
| CCN1CC(C)Cn2c(=O)[nH]c3cc(Br)cc1c32 (stereo not given) | > 100 µM | 37.5 µM | > 100 µM | > 100 µM | > 100 µM | > 100 µM | 48.3 µM | > 100 µM | > 100 µM |  |  |  |  |  |  |  |  |  |
| Cc1ccc(F)cc1NC(=O)O/N=C(\Cl)C(C)C | 35.3 µM | > 21.2 µM | 37.2 µM | 37 µM | 33.4 µM | 24.1 µM | 35.7 µM | 16 µM | 33.6 µM |  |  |  |  |  |  |  |  |  |
